Experimental data: patent publication US20260158011A1 (Achieve Life Sciences, Inc., priority 2023, published 2026)
Read-outs that look alike come from different tables or passages of the source.

Experiments:
[1] = tested on: adult daily cigarette smokers
Experimental: Subjects are randomized to one of the three arms A, B, or C. In Arm A, subjects are treated with a placebo for 12 weeks plus behavioral support. In Arm B, subjects are treated with 3.0 mg cytisinicline TID for 6 weeks followed by a placebo for 6 weeks plus behavioral support. In Arm C, subjects are treated with 3.0 mg cytisinicline TID for 12 weeks plus behavioral support.
The safety objectives of the study will be the following: • To evaluate the safety profile of 3.0 mg TID cytisinicline compared to placebo (e.g., Arm B versus Arm A and Arm C versus Arm A); • To compare the safety profiles of Arm B subjects versus Arm C subjects with respect to adverse events occurring after Week 6 on the study.
The population for this study will be male or female adults who are daily cigarette smokers, intending to quit smoking, and are willing to set a quit date that is within 5 to 7 days of the start of treatment. Study treatment will start the day after randomization.
Safety assessments at clinic visits will occur on Day 2 and Day 7 during Week 1 and then weekly throughout the Treatment Period. Laboratory hematology and chemistry assessments will be made on Day 7, Week 6, and Week 12 (End of Treatment “EOT”) during the Treatment Period. Any ongoing adverse events at Week 12 will be followed until resolved or determined to be chronic. The end of study is defined as the last follow-up visit (up to the Week 24 visit) for the last subject.
The Treatment Period will begin on the day after randomization. Study treatment will be blinded, and subjects will take one study tablet three times during the day, approximately 5 hours apart. Subjects randomly assigned to Arm A will take one placebo tablet at each dosing per day for 12 weeks. Arm B subjects will take one cytisinicline tablet at each dosing per day for the first 6 weeks followed by one placebo tablet at each dosing per day for the last 6 weeks. Arm C subjects will take one cytisinicline tablet at each dosing per day for 12 weeks.
Laboratory (hematology and chemistry) evaluations will be performed at the Week 1, Week 6, and Week 12 clinic visits using a central laboratory.
Safety will be assessed by consideration of all adverse events reported by or elicited from the subject and abnormalities detected on hematology and serum chemistry tests. Worsening of other pre-existing medical conditions and any changes to concomitant medications/treatments will also be taken into account in this evaluation.
Routine laboratory safety samples will be analyzed at screening and at clinic visits as identified in Table 15 for each subject by a central laboratory. […] Clinically significant abnormalities occurring during the study will be recorded on the AE page. The reference ranges for laboratory parameters will also be entered in the database and filed in the Investigator site file.
Safety assessments will include reported adverse events, laboratory test results, and vital signs. Safety variables will be summarized for the Safety Analysis Set (SAS), defined as all randomized subjects who take at least one dose of study drug.
Adverse events (AEs) will be coded using the MedDRA dictionary. Coding will include system organ class (SOC) and preferred term (PT). All verbatim descriptions and coded terms will be listed for all AEs.

[2] = tested on: adults smoking 10+ cigarettes daily; conditions: for Serious AEs: ORCA-1, pooled cytisinicline arms (n = 203)
Source text: Table 13 summarizes the treatment emergent adverse events (TEAEs).

[3] = drug reduction Day 35, first Insomnia listing, pooled blinded
[4] = drug reduction Day 35, pooled blinded
[5] = drug reduction Day 35, second Insomnia listing, pooled blinded
[6] = drug reduction Day 42, pooled blinded
[7] = drug reduction Day 49, pooled blinded
[8] = drug reduction Day 55, pooled blinded
[9] = drug reduction Day 58, pooled blinded
[10] = drug reduction Day 63, pooled blinded
[11] = follow up period, start day 86, resolution day 87, pooled blinded
[12] = follow up period, start day 87, resolution day 90, pooled blinded
[13] = follow up period, start day 87, resolution day 96, pooled blinded
[14] = follow up period, start day 102, resolution day 105, pooled blinded
[15] = follow up period, start day 104, resolution day 105, pooled blinded
[16] = follow up period, start day 107, resolution day 111, pooled blinded
[17] = follow up period, start day 112, resolution day 113, pooled blinded
[18] = follow up period, start day 115, resolution day 120, pooled blinded
[19] = follow up period, start day 119, resolution day 139, pooled blinded
[20] = follow up period, start day 146, no resolution day, pooled blinded
[21] = follow up period, start day 148, resolution day 152, pooled blinded
[22] = follow up period, start day 151, resolution day 161, pooled blinded
[23] = follow up period, start day 161, resolution day 161, pooled blinded
[24] = follow up period, start day 180, no resolution day, pooled blinded
[25] = 1.5 mg downward titration (n = 51)
[26] = 3.0 mg downward titration (n = 50)
[27] = pooled cytisinicline arms (n = 203)

O=c1cccc2n1C[C@@H]1CNC[C@H]2C1 [cytisine, (−)-Cytisine]
129 IU/L: Abnormal lab AE related to study drug, Elevated AST Level: Parameter value at AE ([1]; value at screening 29 IU/L, start Day 29, dose not changed)
Not Recovered/Not: Serious adverse event Acute Kidney Injury Superimposed to Chronic Kidney Disease: Outcome [1, 20] | Serious adverse event Ureterolithiasis: Outcome [1, 20] | Serious adverse event Dyspnea: Outcome [1, 24] | Abnormal lab AE related to study drug, Low White Blood Count: Outcome of Adverse Event ([1]; start Day 85) | Abnormal lab AE related to study drug, Elevated ALT: Outcome of Adverse Event ([1]; start Day 169)
12 (6%) n (%): TEAE: Nausea [2, 27]
1 (2%) n (%): TEAE: Constipation ([2]; 1.5 mg TID (n = 52)) | TEAE: Nausea ([2]; 1.5 mg TID (n = 52)) | TEAE: Fatigue [2, 25] | TEAE: Headache [2, 25] | TEAE: Fatigue ([2]; 3.0 mg TID (n = 50)) | TEAE: Headache [2, 26]
6 (12%) n (%): TEAE: Headache ([2]; 1.5 mg TID (n = 52))
(1.1) %: Psychiatric adverse event Nightmare, % ([1]; pooled blinded data)
(0.3) %: Psychiatric adverse event Initial insomnia, % ([1]; pooled blinded data) | Psychiatric adverse event Panic attack, % ([1]; pooled blinded data) | Psychiatric adverse event Restlessness, % ([1]; pooled blinded data) | Psychiatric adverse event Suicide attempt, % ([1]; pooled blinded data)
130 g/L: Abnormal lab AE related to study drug, Elevated Hemoglobin: Parameter value at AE ([1]; value at screening 158 g/L, start Day 85)
(2.5) %: Psychiatric adverse event Anxiety, % ([1]; pooled blinded data)
Probable: Dose reduction for Insomnia: Relatedness [1, 3]
(0.1) %: Psychiatric adverse event Acute stress disorder, % ([1]; pooled blinded data) | Psychiatric adverse event Adjustment disorder with depressed mood, % ([1]; pooled blinded data) | Psychiatric adverse event Affect lability, % ([1]; pooled blinded data) | Psychiatric adverse event Attention deficit hyperactivity disorder, % ([1]; pooled blinded data) | Psychiatric adverse event Bipolar disorder, % ([1]; pooled blinded data) | Psychiatric adverse event Bruxism, % ([1]; pooled blinded data) | Psychiatric adverse event Major depression, % ([1]; pooled blinded data) | Psychiatric adverse event Mood swings, % ([1]; pooled blinded data) | Psychiatric adverse event Paranoia, % ([1]; pooled blinded data) | Psychiatric adverse event Post-traumatic stress disorder, % ([1]; pooled blinded data) | Psychiatric adverse event Somnambulism, % ([1]; pooled blinded data) | Psychiatric adverse event Stress, % ([1]; pooled blinded data) | Psychiatric adverse event Suicidal ideation, % ([1]; pooled blinded data)
Not: Serious adverse event Post Surgical Complications: Causality [1, 11] | Serious adverse event Worsening Fatigue: Causality [1, 12] | Serious adverse event Coronary Atherosclerosis: Causality [1, 13] | Serious adverse event Acute Cholecystitis: Causality [1, 14] | Serious adverse event Transient Ischemic Attack: Causality [1, 15] | Serious adverse event Perforated Bowel: Causality [1, 16] | Serious adverse event Abscess on Right Groin Area: Causality [1, 17] | Serious adverse event COPD Exacerbation: Causality [1, 18] | Serious adverse event Pneumonia: Causality [1, 19] | Serious adverse event Pneumonia: Causality [1, 21] | Serious adverse event Stab Wound: Causality [1, 23] | Serious adverse event Dyspnea: Causality [1, 24]
Unlikely: Serious adverse event Sepsis: Causality [1, 18] | Serious adverse event Acute Kidney Injury Superimposed to Chronic Kidney Disease: Causality [1, 20] | Serious adverse event Ureterolithiasis: Causality [1, 20] | Serious adverse event Dyspnea: Causality [1, 22]
21 (42%) n (%): TEAE: At least 1 AE ([2]; 3.0 mg TID (n = 50))
(22.9) %: Psychiatric disorders (any psychiatric reported adverse event), % ([1]; pooled blinded data)
Recovered/Resolved: Dose reduction for Insomnia: Outcome [1, 3] | Dose reduction for Burning Eyes: Outcome [1, 4] | Dose reduction for Headache: Outcome [1, 4] | Dose reduction for Nausea: Outcome [1, 4] | Dose reduction for Sinus Congestion: Outcome [1, 4] | Dose reduction for Sinus Pressure: Outcome [1, 4] | Dose reduction for Insomnia: Outcome [1, 5] | Dose reduction for Difficulty Falling Asleep: Outcome [1, 6] | Dose reduction for Restless Leg Syndrome: Outcome [1, 7] | Dose reduction for Memory Loss: Outcome [1, 8] | Dose reduction for Bilateral Foot Swelling: Outcome [1, 9] | Dose reduction for Facial Swelling (Forehead Area): Outcome [1, 9] | Dose reduction for Right Hand Swelling: Outcome [1, 9] | Dose reduction for Headache: Outcome [1, 10] | Serious adverse event Worsening Fatigue: Outcome [1, 12] | Serious adverse event Coronary Atherosclerosis: Outcome [1, 13] | Serious adverse event Acute Cholecystitis: Outcome [1, 14] | Serious adverse event Transient Ischemic Attack: Outcome [1, 15] | Serious adverse event Perforated Bowel: Outcome [1, 16] | Serious adverse event Abscess on Right Groin Area: Outcome [1, 17] | Serious adverse event COPD Exacerbation: Outcome [1, 18] | Serious adverse event Sepsis: Outcome [1, 18] | Serious adverse event Pneumonia: Outcome [1, 19] | Serious adverse event Pneumonia: Outcome [1, 21] | Serious adverse event Dyspnea: Outcome [1, 22] | Abnormal lab AE related to study drug, Elevated ALT Level: Outcome of Adverse Event ([1]; start Day 29, dose not changed) | Abnormal lab AE related to study drug, Elevated AST Level: Outcome of Adverse Event ([1]; start Day 29, dose not changed) | Abnormal lab AE related to study drug, Elevated Hemoglobin: Outcome of Adverse Event ([1]; start Day 85)
7 (3%) n (%): TEAE: Fatigue [2, 27]
(10.2) %: Psychiatric adverse event Insomnia, % ([1]; pooled blinded data)
2.5e+09 L⁻¹: Abnormal lab AE related to study drug, Low White Blood Count: Parameter value at AE ([1]; value at screening 5.1 × 10^9/L, start Day 85)
5 (10%) n (%): TEAE: URTI ([2]; 1.5 mg TID (n = 52)) | TEAE: Nausea [2, 25]
195 IU/L: Abnormal lab AE related to study drug, Elevated ALT Level: Parameter value at AE ([1]; value at screening 25 IU/L, start Day 29, dose not changed)
(1.7) %: Psychiatric adverse event Irritability, % ([1]; pooled blinded data)
0: Serious AEs ([2]; listed as Cytisinicline)
10 (5%) n (%): TEAE: Headache [2, 27]
no serious or severe adverse events: Serious AEs [2]
(7.5) %: Psychiatric adverse event Abnormal dreams, % ([1]; pooled blinded data)
18 (9%) n (%): TEAE: Abnormal dreams [2, 27]
2 (4%) n (%): TEAE: Headache ([2]; 3.0 mg TID (n = 50)) | TEAE: Fatigue [2, 26] | TEAE: URTI [2, 26]
82 IU/L: Abnormal lab AE related to study drug, Elevated ALT: Parameter value at AE ([1]; value at screening 50 IU/L, start Day 169)
Fatal: Serious adverse event Post Surgical Complications: Outcome [1, 11] | Serious adverse event Stab Wound: Outcome [1, 23]
Mild: Dose reduction for Bilateral Foot Swelling: Severity [1, 9] | Dose reduction for Facial Swelling (Forehead Area): Severity [1, 9] | Dose reduction for Right Hand Swelling: Severity [1, 9] | Dose reduction for Headache: Severity [1, 10] | Abnormal lab AE related to study drug, Elevated ALT Level: Severity ([1]; start Day 29, dose not changed) | Abnormal lab AE related to study drug, Elevated AST Level: Severity ([1]; start Day 29, dose not changed)
Severe: Serious adverse event Post Surgical Complications: Severity/Intensity [1, 11] | Serious adverse event Coronary Atherosclerosis: Severity/Intensity [1, 13] | Serious adverse event Transient Ischemic Attack: Severity/Intensity [1, 15] | Serious adverse event Perforated Bowel: Severity/Intensity [1, 16] | Serious adverse event Abscess on Right Groin Area: Severity/Intensity [1, 17] | Serious adverse event COPD Exacerbation: Severity/Intensity [1, 18] | Serious adverse event Sepsis: Severity/Intensity [1, 18] | Serious adverse event Pneumonia: Severity/Intensity [1, 19] | Serious adverse event Acute Kidney Injury Superimposed to Chronic Kidney Disease: Severity/Intensity [1, 20] | Serious adverse event Ureterolithiasis: Severity/Intensity [1, 20] | Serious adverse event Pneumonia: Severity/Intensity [1, 21] | Serious adverse event Dyspnea: Severity/Intensity [1, 22] | Serious adverse event Stab Wound: Severity/Intensity [1, 23] | Serious adverse event Dyspnea: Severity/Intensity [1, 24]
Moderate: Dose reduction for Insomnia: Severity [1, 3] | Dose reduction for Burning Eyes: Severity [1, 4] | Dose reduction for Headache: Severity [1, 4] | Dose reduction for Nausea: Severity [1, 4] | Dose reduction for Sinus Congestion: Severity [1, 4] | Dose reduction for Sinus Pressure: Severity [1, 4] | Dose reduction for Insomnia: Severity [1, 5] | Dose reduction for Difficulty Falling Asleep: Severity [1, 6] | Dose reduction for Restless Leg Syndrome: Severity [1, 7] | Dose reduction for Memory Loss: Severity [1, 8] | Serious adverse event Worsening Fatigue: Severity/Intensity [1, 12] | Serious adverse event Acute Cholecystitis: Severity/Intensity [1, 14] | Abnormal lab AE related to study drug, Elevated ALT: Severity ([1]; start Day 169)
Possible: Dose reduction for Burning Eyes: Relatedness [1, 4] | Dose reduction for Headache: Relatedness [1, 4] | Dose reduction for Nausea: Relatedness [1, 4] | Dose reduction for Sinus Congestion: Relatedness [1, 4] | Dose reduction for Sinus Pressure: Relatedness [1, 4] | Dose reduction for Insomnia: Relatedness [1, 5] | Dose reduction for Difficulty Falling Asleep: Relatedness [1, 6] | Dose reduction for Restless Leg Syndrome: Relatedness [1, 7] | Dose reduction for Memory Loss: Relatedness [1, 8] | Dose reduction for Bilateral Foot Swelling: Relatedness [1, 9] | Dose reduction for Facial Swelling (Forehead Area): Relatedness [1, 9] | Dose reduction for Right Hand Swelling: Relatedness [1, 9] | Dose reduction for Headache: Relatedness [1, 10]
93 (46%) n (%): TEAE: At least 1 AE [2, 27]
14 (7%) n (%): TEAE: Insomnia [2, 27]
4 (2%) n (%): TEAE: Constipation [2, 27]
20 (39%) n (%): TEAE: At least 1 AE ([2]; 1.5 mg TID (n = 52))
7 (14%) n (%): TEAE: Abnormal dreams [2, 26]
(0.5) %: Psychiatric adverse event Anhedonia, % ([1]; pooled blinded data) | Psychiatric adverse event Depressed mood, % ([1]; pooled blinded data) | Psychiatric adverse event Sleep disorder, % ([1]; pooled blinded data)
29 (57%) n (%): TEAE: At least 1 AE [2, 25]
13 (6%) n (%): TEAE: URTI [2, 27]
(2.0) %: Psychiatric adverse event Depression, % ([1]; pooled blinded data)
4 (8%) n (%): TEAE: Abnormal dreams ([2]; 1.5 mg TID (n = 52)) | TEAE: Insomnia ([2]; 1.5 mg TID (n = 52)) | TEAE: Abnormal dreams [2, 25] | TEAE: Insomnia [2, 26]
23 (46%) n (%): TEAE: At least 1 AE [2, 26]
3 (6%) n (%): TEAE: Fatigue ([2]; 1.5 mg TID (n = 52)) | TEAE: Insomnia [2, 25] | TEAE: URTI [2, 25] | TEAE: Abnormal dreams ([2]; 3.0 mg TID (n = 50)) | TEAE: Constipation ([2]; 3.0 mg TID (n = 50)) | TEAE: Insomnia ([2]; 3.0 mg TID (n = 50)) | TEAE: Nausea ([2]; 3.0 mg TID (n = 50)) | TEAE: URTI ([2]; 3.0 mg TID (n = 50)) | TEAE: Nausea [2, 26]
